Experimental data published in the supplement of paper PMC13380429.

How the values were obtained:
Settings in all cases: 72 h
HepG2 [1] = assay: relative viability EC50 (midpoint between 100% and the lowest measured viability); higher = less toxic
U2OS [2] = assay: as above
Calu-3 [3] = assay: as above
HepG2 [4] = assay: drug sensitivity score (DSS) for viability; higher = more toxic; extreme values may be limits of the assay
U2OS [5] = assay: as above
Calu-3 [6] = assay: as above
Vero E6 [7] = assay: as above
Caco-2 [8] = assay: as above
HepG2 [9] = assay: cell viability relative to DMSO; higher = less toxic
U2OS [10] = assay: as above
Calu-3 [11] = assay: as above
Vero E6 [12] = assay: as above
Caco-2 [13] = assay: as above
Vero E6 [14] = assay: relative viability EC50 (midpoint between 100% and the lowest measured viability); higher = less toxic
Caco-2 [15] = assay: as above

| SMILES | relative viability EC50 (HepG2 [1]) | relative viability EC50 (U2OS [2]) | relative viability EC50 (Calu-3 [3]) | drug sensitivity score (HepG2 [4]) | drug sensitivity score (U2OS [5]) | drug sensitivity score (Calu-3 [6]) | drug sensitivity score (Vero E6 [7]) | drug sensitivity score (Caco-2 [8]) | cell viability (HepG2 [9]; 1 nM) | cell viability (HepG2 [9]; 10 nM) | cell viability (HepG2 [9]; 100 nM) | cell viability (HepG2 [9]; 1000 nM) | cell viability (HepG2 [9]; 10000 nM) | cell viability (U2OS [10]; 1 nM) | cell viability (U2OS [10]; 10 nM) | cell viability (U2OS [10]; 100 nM) | cell viability (U2OS [10]; 1000 nM) | cell viability (U2OS [10]; 10000 nM) | cell viability (Calu-3 [11]; 1 nM) | cell viability (Calu-3 [11]; 10 nM) | cell viability (Calu-3 [11]; 100 nM) | cell viability (Calu-3 [11]; 1000 nM) | cell viability (Calu-3 [11]; 10000 nM) | cell viability (Vero E6 [12]; 1 nM) | cell viability (Vero E6 [12]; 10 nM) | cell viability (Vero E6 [12]; 100 nM) | cell viability (Vero E6 [12]; 1000 nM) | cell viability (Vero E6 [12]; 10000 nM) | cell viability (Caco-2 [13]; 1 nM) | cell viability (Caco-2 [13]; 10 nM) | cell viability (Caco-2 [13]; 100 nM) | cell viability (Caco-2 [13]; 1000 nM) | cell viability (Caco-2 [13]; 10000 nM) | relative viability EC50 (Vero E6 [14]) | relative viability EC50 (Caco-2 [15]) |
| --- | --- | --- | --- | --- | --- | --- | --- | --- | --- | --- | --- | --- | --- | --- | --- | --- | --- | --- | --- | --- | --- | --- | --- | --- | --- | --- | --- | --- | --- | --- | --- | --- | --- | --- | --- |
| COc1cc2ncnc(Nc3ccc(Oc4ccccc4)cc3)c2cc1OC [SRC-kinase-inhibitor-I] | > 10 µM | > 10 µM | 1.98 µM | 0.1 | 0.4 | 5.4 | 2.6 | 2.1 | 104% | 112% | 104% | 103% | 86.8% | 99.7% | 105% | 99.6% | 103% | 80.8% | 88.9% | 102% | 94% | 89.9% | 33.4% | 103% | 97.2% | 109% | 93.5% | 66.7% | 96.8% | 106% | 98% | 94.7% | 71.1% | – | – |
| CCn1c(=O)n([C@H]2CCCN(c3nccc(-c4cc5ccccc5o4)n3)C2)c2ccccc21 [TC-F-2] | – | > 10 µM | > 10 µM | 3.7 | 0 | 0 | 0 | 1.4 | 96% | 103% | 99.2% | 90.7% | 56.9% | 95.1% | 101% | 96.4% | 98.8% | 96.5% | 98.8% | 99.6% | 114% | 104% | 98.4% | 103% | 99.5% | 96.1% | 96.6% | 102% | 95.6% | 91.4% | 85.1% | 92% | 84.9% | > 10 µM | > 10 µM |
| COc1cc(OC)c2c(=O)[nH]c(-c3cc(C)c(OCCO)c(C)c3)nc2c1 [apabetalone] | > 10 µM | > 10 µM | > 10 µM | 0.9 | 0 | 0 | 2.9 | 0 | 101% | 99.9% | 91.3% | 93.2% | 79.9% | 102% | 102% | 104% | 96.8% | 89.2% | 98.5% | 90.2% | 90.2% | 99.4% | 102% | 99.8% | 98.4% | 105% | 93% | 63.8% | 109% | 96.9% | 102% | 101% | 87.6% | – | > 10 µM |
| NS(=O)(=O)c1cc(-c2nnn[nH]2)c(NCc2cccs2)cc1Cl [azosemide] | > 10 µM | – | – | 0 | – | – | 0 | 1.6 | 94.5% | 103% | 103% | 95.7% | 89.6% | – | – | – | – | – | – | – | – | – | – | 103% | 108% | 104% | 106% | 97.1% | 99.4% | 111% | 86.5% | 92.4% | 92.1% | > 10 µM | > 10 µM |
| C[C@@]12CCc3occc3[C@H]1CC[C@@]13C[C@@H](CC[C@H]12)[C@@](O)(CO)C3 [cafestol] | – | > 10 µM | > 10 µM | 1.1 | 0 | 0 | 0 | 0.5 | 83.8% | 96.4% | 78.4% | 104% | 69.3% | 101% | 103% | 94.2% | 98.2% | 94.4% | 104% | 104% | 107% | 112% | 98.2% | 98.7% | 97.7% | 102% | 98% | 104% | 119% | 100% | 104% | 103% | 79.6% | > 10 µM | > 10 µM |
| O=C(O)CCCCN(CCc1ccccc1OCc1ccc(CCc2ccccc2)cc1)Cc1ccc(C(=O)O)cc1 [cinaciguat] | > 10 µM | – | – | 0 | – | – | – | 0 | 106% | 110% | 98.9% | 109% | 105% | – | – | – | – | – | – | – | – | – | – | – | – | – | – | – | 110% | 110% | 104% | 86% | 104% | – | > 10 µM |
| O=C(c1ccc(OCCCc2c[nH]cn2)cc1)C1CC1 [ciproxifan] | – | > 10 µM | > 10 µM | 4.1 | 0 | 0.5 | 0 | 0 | 106% | 107% | 99.8% | 74.3% | 88.6% | 96.1% | 105% | 96.8% | 95.8% | 97.5% | 93.4% | 101% | 99.9% | 88.2% | 93.1% | 101% | 102% | 101% | 101% | 94.2% | 101% | 97.1% | 91.8% | 94.2% | 88.4% | > 10 µM | > 10 µM |
| Nc1ccn([C@@H]2O[C@H](CO)[C@@H](O)[C@@H]2O)c(=O)n1 [cytarabine] | 0.09 µM | – | – | 15.2 | 1.6 | 2.4 | 2.7 | 2.1 | 95.2% | 100% | 66.4% | 42.1% | 38.7% | 103% | 94.3% | 96.3% | 96.9% | 72.8% | 99.6% | 93.8% | 91.9% | 88.6% | 70.9% | 95.8% | 96.5% | 93.5% | 95.1% | 62.1% | 106% | 97% | 90.7% | 85.9% | 80.6% | – | > 10 µM |
